Test system: 485176-168-R4-J1-PDC spheroids with HUVEC/MSC, viability
Test: Anticancer human tumor 485176-168-R4-J1-PDC patient-derived pancreatic adenocarcinoma cell line growth inhibition [GQUAD]
Conditions: for IC50: curve of first compound; for viability, T/C: stronger effect = lower value
Outline: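 Tumor cells were grown as complex spheroids with HUVEC endothelial cells and mesenchymal stem cells as stroma. G-quadruplex stabilizers were combined with targeted agents over half-log dilutions from near the clinical Cmax, or from 10 microM.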

[1] = second compound 0.0316 µM, first compound 0.0316 µM
[2] = second compound 0.0316 µM, first compound 0.316 µM
[3] = second compound 0.1 µM, first compound 0.0316 µM
[4] = second compound 0.1 µM, first compound 0.316 µM
[5] = second compound 0.316 µM, first compound 0.0316 µM
[6] = second compound 0.316 µM, first compound 0.316 µM
[7] = second compound 1 µM, first compound 0.0316 µM
[8] = second compound 1 µM, first compound 0.316 µM
[9] = second compound 3.16 µM, first compound 0.0316 µM
[10] = second compound 3.16 µM, first compound 0.316 µM
[11] = second compound 10 µM, first compound 0.0316 µM
[12] = second compound 10 µM, first compound 0.316 µM
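Also: spheroids exposed to compounds for seven days before readout.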
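For viability, T/C in this document: percent viability relative to DMSO vehicle control wells as 100%.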

## Cn1ncnc1[C@H]1c2n[nH]c(=O)c3cc(F)cc(c23)N[C@@H]1c1ccc(F)cc1 + CN(C)c1ccc(Nc2c3ccc(NC(=O)CCN4CCCC4)cc3nc3cc(NC(=O)CCN4CCCC4)ccc23)cc1
Second compound 0.0316 µM
  IC50: > 0.316 µM
Second compound 0.1 µM
  IC50: > 0.316 µM
Second compound 0.316 µM
  IC50: > 0.316 µM
Second compound 1 µM
  IC50: > 0.316 µM
Second compound 3.16 µM
  IC50: > 0.316 µM
Second compound 10 µM
  IC50: > 0.316 µM
Second compound 0.0316 µM, first compound 0.000999 µM
  viability, T/C: 92.1%
Second compound 0.0316 µM, first compound 0.00316 µM
  viability, T/C: 91.2%
Second compound 0.0316 µM, first compound 0.00999 µM
  viability, T/C: 101%
[1]
  viability, T/C: 98%
Second compound 0.0316 µM, first compound 0.0999 µM
  viability, T/C: 98.9%
[2]
  viability, T/C: 92%
Second compound 0.1 µM, first compound 0.000999 µM
  viability, T/C: 102%
Second compound 0.1 µM, first compound 0.00316 µM
  viability, T/C: 124%
Second compound 0.1 µM, first compound 0.00999 µM
  viability, T/C: 107%
[3]
  viability, T/C: 93.3%
Second compound 0.1 µM, first compound 0.0999 µM
  viability, T/C: 110%
[4]
  viability, T/C: 90.8%
Second compound 0.316 µM, first compound 0.000999 µM
  viability, T/C: 101%
Second compound 0.316 µM, first compound 0.00316 µM
  viability, T/C: 97.5%
Second compound 0.316 µM, first compound 0.00999 µM
  viability, T/C: 95.3%
[5]
  viability, T/C: 104%
Second compound 0.316 µM, first compound 0.0999 µM
  viability, T/C: 106%
[6]
  viability, T/C: 96.5%
Second compound 1 µM, first compound 0.000999 µM
  viability, T/C: 108%
Second compound 1 µM, first compound 0.00316 µM
  viability, T/C: 91.7%
Second compound 1 µM, first compound 0.00999 µM
  viability, T/C: 114%
[7]
  viability, T/C: 104%
Second compound 1 µM, first compound 0.0999 µM
  viability, T/C: 113%
[8]
  viability, T/C: 93.2%
Second compound 3.16 µM, first compound 0.000999 µM
  viability, T/C: 107%
Second compound 3.16 µM, first compound 0.00316 µM
  viability, T/C: 80.9%
Second compound 3.16 µM, first compound 0.00999 µM
  viability, T/C: 98.6%
[9]
  viability, T/C: 95.7%
Second compound 3.16 µM, first compound 0.0999 µM
  viability, T/C: 89.3%
[10]
  viability, T/C: 86.8%
Second compound 10 µM, first compound 0.000999 µM
  viability, T/C: 90.1%
Second compound 10 µM, first compound 0.00316 µM
  viability, T/C: 81.4%
Second compound 10 µM, first compound 0.00999 µM
  viability, T/C: 79.6%
[11]
  viability, T/C: 97.7%
Second compound 10 µM, first compound 0.0999 µM
  viability, T/C: 99.5%
[12]
  viability, T/C: 78.8%

## O=C(c1cc(Cc2n[nH]c(=O)c3ccccc23)ccc1F)N1CCN(C(=O)C2CC2)CC1 + CN(C)c1ccc(Nc2c3ccc(NC(=O)CCN4CCCC4)cc3nc3cc(NC(=O)CCN4CCCC4)ccc23)cc1
Second compound 0.0316 µM
  IC50: > 10 µM
Second compound 0.1 µM
  IC50: > 10 µM
Second compound 0.316 µM
  IC50: > 10 µM
Second compound 1 µM
  IC50: > 10 µM
Second compound 3.16 µM
  IC50: > 10 µM
Second compound 10 µM
  IC50: > 10 µM
[1]
  viability, T/C: 90.6%
Second compound 0.0316 µM, first compound 0.1 µM
  viability, T/C: 92.6%
[2]
  viability, T/C: 103%
Second compound 0.0316 µM, first compound 1 µM
  viability, T/C: 103%
Second compound 0.0316 µM, first compound 3.16 µM
  viability, T/C: 111%
Second compound 0.0316 µM, first compound 10 µM
  viability, T/C: 79.3%
[3]
  viability, T/C: 96.3%
Second compound 0.1 µM, first compound 0.1 µM
  viability, T/C: 98.7%
[4]
  viability, T/C: 102%
Second compound 0.1 µM, first compound 1 µM
  viability, T/C: 91.2%
Second compound 0.1 µM, first compound 3.16 µM
  viability, T/C: 86.5%
Second compound 0.1 µM, first compound 10 µM
  viability, T/C: 72.5%
[5]
  viability, T/C: 84.7%
Second compound 0.316 µM, first compound 0.1 µM
  viability, T/C: 90.8%
[6]
  viability, T/C: 91.2%
Second compound 0.316 µM, first compound 1 µM
  viability, T/C: 95.3%
Second compound 0.316 µM, first compound 3.16 µM
  viability, T/C: 105%
Second compound 0.316 µM, first compound 10 µM
  viability, T/C: 81.5%
[7]
  viability, T/C: 107%
Second compound 1 µM, first compound 0.1 µM
  viability, T/C: 91.5%
[8]
  viability, T/C: 90%
Second compound 1 µM, first compound 1 µM
  viability, T/C: 86.4%
Second compound 1 µM, first compound 3.16 µM
  viability, T/C: 89.4%
Second compound 1 µM, first compound 10 µM
  viability, T/C: 73.6%
[9]
  viability, T/C: 96.9%
Second compound 3.16 µM, first compound 0.1 µM
  viability, T/C: 93.7%
[10]
  viability, T/C: 89.9%
Second compound 3.16 µM, first compound 1 µM
  viability, T/C: 90.8%
Second compound 3.16 µM, first compound 3.16 µM
  viability, T/C: 95.4%
Second compound 3.16 µM, first compound 10 µM
  viability, T/C: 68.4%
[11]
  viability, T/C: 94.7%
Second compound 10 µM, first compound 0.1 µM
  viability, T/C: 89.9%
[12]
  viability, T/C: 77.4%
Second compound 10 µM, first compound 1 µM
  viability, T/C: 85.8%
Second compound 10 µM, first compound 3.16 µM
  viability, T/C: 84.7%
Second compound 10 µM, first compound 10 µM
  viability, T/C: 59.7%

— PubChem BioAssay AID2060509 (Molecular Pharmacology Branch, DTP, NCI, 2025)
